IC50 data for one substance are collected here from publication PMC11410249 (PLOS ONE, 2024).

Common to all, as to type: biochemical
One assay deals with T1, 12-LO (Homo sapiens, UniProt P18054).
T1 construct: gene ALOX12
T1 sequence (P18054 1-663): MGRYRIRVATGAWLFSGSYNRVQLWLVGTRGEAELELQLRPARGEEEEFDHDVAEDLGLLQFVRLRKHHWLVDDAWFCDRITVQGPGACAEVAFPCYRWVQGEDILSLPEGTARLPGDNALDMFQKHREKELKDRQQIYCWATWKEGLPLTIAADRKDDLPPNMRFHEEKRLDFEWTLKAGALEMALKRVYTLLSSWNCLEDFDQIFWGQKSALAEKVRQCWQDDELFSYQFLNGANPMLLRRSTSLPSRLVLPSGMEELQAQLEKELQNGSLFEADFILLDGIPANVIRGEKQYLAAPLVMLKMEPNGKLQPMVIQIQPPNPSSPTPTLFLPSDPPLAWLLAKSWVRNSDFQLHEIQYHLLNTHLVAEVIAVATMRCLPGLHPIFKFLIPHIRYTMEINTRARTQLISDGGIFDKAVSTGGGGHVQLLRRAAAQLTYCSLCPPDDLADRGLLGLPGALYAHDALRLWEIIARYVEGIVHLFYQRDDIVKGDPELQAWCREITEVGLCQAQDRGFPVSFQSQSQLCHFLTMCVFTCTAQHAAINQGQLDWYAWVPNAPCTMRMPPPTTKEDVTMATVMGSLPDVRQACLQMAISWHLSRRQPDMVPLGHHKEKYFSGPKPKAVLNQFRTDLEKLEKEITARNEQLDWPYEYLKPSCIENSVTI
In words: LC-MS/MS enzyme activity assay, […] enzyme, […] arachidonic acid.

The target in another assay is T2, 15-lipoxygenase (15-LO) (Homo sapiens, UniProt P16050).
T2 construct: gene ALOX15
T2 sequence (P16050 2-662): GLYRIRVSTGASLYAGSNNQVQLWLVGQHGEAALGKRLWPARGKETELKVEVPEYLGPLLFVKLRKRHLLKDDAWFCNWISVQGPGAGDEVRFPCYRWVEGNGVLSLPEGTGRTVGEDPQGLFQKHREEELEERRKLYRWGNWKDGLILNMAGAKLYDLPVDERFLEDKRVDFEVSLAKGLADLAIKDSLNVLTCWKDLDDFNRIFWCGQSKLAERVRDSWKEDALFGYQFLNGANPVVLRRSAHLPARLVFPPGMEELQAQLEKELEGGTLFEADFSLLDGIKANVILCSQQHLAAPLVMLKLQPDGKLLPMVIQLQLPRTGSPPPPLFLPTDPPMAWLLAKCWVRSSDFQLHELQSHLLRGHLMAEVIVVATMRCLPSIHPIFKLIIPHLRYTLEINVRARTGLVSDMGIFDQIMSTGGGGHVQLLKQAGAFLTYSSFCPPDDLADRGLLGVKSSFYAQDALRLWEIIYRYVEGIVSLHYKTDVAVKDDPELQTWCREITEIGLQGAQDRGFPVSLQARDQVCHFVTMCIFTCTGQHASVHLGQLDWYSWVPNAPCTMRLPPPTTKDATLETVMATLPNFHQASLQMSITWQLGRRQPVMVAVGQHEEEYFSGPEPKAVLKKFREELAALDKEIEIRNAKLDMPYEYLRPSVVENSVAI
The description is as above.

Another assay deals with T3, cyclooxygenase (COX-2) (Homo sapiens, UniProt P35354).
T3 construct: gene PTGS2
T3 sequence (P35354 18-604): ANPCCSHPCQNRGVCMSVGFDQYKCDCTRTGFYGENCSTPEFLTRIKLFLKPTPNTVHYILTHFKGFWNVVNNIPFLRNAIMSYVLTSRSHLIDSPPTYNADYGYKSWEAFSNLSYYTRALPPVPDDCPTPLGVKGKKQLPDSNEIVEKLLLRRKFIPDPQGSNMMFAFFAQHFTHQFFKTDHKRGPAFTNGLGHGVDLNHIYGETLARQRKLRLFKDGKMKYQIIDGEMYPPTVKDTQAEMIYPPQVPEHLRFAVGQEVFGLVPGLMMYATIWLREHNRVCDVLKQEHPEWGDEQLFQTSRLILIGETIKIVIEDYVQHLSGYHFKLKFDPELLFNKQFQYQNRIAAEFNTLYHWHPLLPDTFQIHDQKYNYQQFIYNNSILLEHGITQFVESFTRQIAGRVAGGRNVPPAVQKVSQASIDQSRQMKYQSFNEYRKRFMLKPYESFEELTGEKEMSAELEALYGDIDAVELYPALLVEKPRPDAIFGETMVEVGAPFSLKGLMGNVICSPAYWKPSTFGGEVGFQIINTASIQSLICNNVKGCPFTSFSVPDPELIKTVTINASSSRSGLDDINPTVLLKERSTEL
In words: in vitro enzyme activity assay (product formation by LC-MS/MS).

Another assay concerns the target T4, 5-lipoxygenase (5-LO) (Homo sapiens, UniProt P09917).
T4 construct: gene ALOX5; full-length human 5-LO
T4 sequence (P09917 1-674): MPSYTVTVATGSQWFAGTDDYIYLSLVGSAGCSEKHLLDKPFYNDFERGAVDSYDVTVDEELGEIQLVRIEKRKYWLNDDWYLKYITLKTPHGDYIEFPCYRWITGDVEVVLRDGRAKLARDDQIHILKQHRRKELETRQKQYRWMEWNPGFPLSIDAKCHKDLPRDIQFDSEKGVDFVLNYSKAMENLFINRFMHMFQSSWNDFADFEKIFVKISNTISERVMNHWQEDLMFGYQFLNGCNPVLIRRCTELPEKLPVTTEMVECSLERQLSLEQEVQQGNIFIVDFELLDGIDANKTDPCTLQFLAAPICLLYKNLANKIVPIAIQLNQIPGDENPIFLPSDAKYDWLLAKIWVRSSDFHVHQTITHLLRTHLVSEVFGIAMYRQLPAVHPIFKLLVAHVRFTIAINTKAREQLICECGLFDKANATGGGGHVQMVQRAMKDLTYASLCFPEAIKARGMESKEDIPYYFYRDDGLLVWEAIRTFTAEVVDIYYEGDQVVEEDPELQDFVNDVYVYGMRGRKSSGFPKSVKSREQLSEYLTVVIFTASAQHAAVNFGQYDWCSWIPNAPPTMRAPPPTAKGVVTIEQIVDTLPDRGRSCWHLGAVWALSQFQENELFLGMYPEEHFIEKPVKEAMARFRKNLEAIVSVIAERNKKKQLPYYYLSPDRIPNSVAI
The experiment in a line: LC-MS/MS activity assay in lysate of 5-LO-transfected Expi293F cells, […] arachidonic acid.

In the case of PTC-041 hydroquinone, the IC50 (in general, the midpoint of a concentration-inhibition curve) worked out at 5.2 µM at 12-LO, 0.95 µM against 15-lipoxygenase (15-LO), 9.6 µM against cyclooxygenase (COX-2) and 0.46 µM against 5-lipoxygenase (5-LO).
